Test results reported in patent US20020049205A1, “Pyrazole antimicrobial agents” (priority 2000, published 2002).
pIC50: −log10 of the molar value.

Experiments:
B. su = experiment: Minimum Inhibitory Concentration assay, B. su; assay type: cell-based; settings: LB medium, 16 hours, 37° C.
Protocol: (§1) For Minimum Inhibitory Concentration (MIC) determinations for selected bacteria, log phase growing bacteria are re-suspended at 1×10^5 bacteria per mL in LB medium. The compound is added and two-fold dilutions are made. The final volume in the 96-well plate is about 100 μL. The plate is incubated at 37° C. in the dark with shaking. After 16 hours of incubation, growth is monitored by reading A600 or by visual inspection. MIC is defined as the minimum concentration of drug resulting in inhibition of visible growth of bacterial under the conditions described (above) in National Committee for Clinical Laboratory Standards 1993. Methods for dilution antimicrobial susceptibility tests for bacteria that grow aerobically. Approved standard M7-A3; National Committee for Clinical Laboratory Standards: Villanova, Pa.
as §1, with “MIC” for “Minimum Inhibitory Concentration (MIC)”

S. au = experiment: Minimum Inhibitory Concentration assay, S. au; assay type: cell-based; settings: LB medium, 16 hours, 37° C.
Protocol: as §1
as §1, with “MIC” for “Minimum Inhibitory Concentration (MIC)”

[1] = biological target: T1, Sigma^70 saturated E. coli RNA Polymerase (Escherichia coli, UniProt P0A7Z4+P0A800+P0A8T7+P0A8V2); experiment: IC50 assay, inhibition of RNA polymerase; assay type: biochemical
T1 construct: purchased Epicenter
T1 sequence (P0A8V2 whole entry): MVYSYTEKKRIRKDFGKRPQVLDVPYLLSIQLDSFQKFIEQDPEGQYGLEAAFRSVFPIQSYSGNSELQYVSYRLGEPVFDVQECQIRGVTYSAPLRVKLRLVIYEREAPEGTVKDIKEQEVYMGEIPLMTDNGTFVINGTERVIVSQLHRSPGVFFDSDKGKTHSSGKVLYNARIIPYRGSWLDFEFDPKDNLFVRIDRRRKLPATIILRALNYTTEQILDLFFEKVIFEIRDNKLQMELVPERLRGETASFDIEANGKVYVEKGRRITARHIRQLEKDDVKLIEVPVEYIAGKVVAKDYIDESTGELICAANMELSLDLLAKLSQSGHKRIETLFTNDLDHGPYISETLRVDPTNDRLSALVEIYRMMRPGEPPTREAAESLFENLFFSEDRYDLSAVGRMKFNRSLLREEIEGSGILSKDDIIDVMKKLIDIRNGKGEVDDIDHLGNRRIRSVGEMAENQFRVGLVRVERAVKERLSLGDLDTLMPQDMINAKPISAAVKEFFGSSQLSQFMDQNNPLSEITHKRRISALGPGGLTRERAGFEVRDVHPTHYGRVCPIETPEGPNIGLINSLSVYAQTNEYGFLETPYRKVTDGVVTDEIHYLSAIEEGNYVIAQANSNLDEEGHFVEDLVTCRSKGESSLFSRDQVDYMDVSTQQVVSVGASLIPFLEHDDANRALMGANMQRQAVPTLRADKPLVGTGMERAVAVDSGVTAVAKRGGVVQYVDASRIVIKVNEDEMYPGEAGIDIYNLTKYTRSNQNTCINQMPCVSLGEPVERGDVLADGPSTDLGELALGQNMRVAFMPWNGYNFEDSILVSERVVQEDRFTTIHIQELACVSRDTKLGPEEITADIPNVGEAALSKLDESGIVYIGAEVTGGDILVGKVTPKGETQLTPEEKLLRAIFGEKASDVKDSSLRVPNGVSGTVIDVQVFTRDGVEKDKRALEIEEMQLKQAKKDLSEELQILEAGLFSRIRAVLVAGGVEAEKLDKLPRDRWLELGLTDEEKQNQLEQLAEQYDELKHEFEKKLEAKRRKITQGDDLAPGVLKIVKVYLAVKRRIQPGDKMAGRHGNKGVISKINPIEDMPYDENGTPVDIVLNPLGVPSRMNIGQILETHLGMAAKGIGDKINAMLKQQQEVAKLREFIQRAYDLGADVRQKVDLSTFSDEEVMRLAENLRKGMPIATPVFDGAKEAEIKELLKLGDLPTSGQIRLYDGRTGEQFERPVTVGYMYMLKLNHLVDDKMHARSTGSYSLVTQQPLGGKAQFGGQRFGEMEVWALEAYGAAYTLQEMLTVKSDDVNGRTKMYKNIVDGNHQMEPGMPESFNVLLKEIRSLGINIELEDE
T1 sequence (P0A8T7 whole entry): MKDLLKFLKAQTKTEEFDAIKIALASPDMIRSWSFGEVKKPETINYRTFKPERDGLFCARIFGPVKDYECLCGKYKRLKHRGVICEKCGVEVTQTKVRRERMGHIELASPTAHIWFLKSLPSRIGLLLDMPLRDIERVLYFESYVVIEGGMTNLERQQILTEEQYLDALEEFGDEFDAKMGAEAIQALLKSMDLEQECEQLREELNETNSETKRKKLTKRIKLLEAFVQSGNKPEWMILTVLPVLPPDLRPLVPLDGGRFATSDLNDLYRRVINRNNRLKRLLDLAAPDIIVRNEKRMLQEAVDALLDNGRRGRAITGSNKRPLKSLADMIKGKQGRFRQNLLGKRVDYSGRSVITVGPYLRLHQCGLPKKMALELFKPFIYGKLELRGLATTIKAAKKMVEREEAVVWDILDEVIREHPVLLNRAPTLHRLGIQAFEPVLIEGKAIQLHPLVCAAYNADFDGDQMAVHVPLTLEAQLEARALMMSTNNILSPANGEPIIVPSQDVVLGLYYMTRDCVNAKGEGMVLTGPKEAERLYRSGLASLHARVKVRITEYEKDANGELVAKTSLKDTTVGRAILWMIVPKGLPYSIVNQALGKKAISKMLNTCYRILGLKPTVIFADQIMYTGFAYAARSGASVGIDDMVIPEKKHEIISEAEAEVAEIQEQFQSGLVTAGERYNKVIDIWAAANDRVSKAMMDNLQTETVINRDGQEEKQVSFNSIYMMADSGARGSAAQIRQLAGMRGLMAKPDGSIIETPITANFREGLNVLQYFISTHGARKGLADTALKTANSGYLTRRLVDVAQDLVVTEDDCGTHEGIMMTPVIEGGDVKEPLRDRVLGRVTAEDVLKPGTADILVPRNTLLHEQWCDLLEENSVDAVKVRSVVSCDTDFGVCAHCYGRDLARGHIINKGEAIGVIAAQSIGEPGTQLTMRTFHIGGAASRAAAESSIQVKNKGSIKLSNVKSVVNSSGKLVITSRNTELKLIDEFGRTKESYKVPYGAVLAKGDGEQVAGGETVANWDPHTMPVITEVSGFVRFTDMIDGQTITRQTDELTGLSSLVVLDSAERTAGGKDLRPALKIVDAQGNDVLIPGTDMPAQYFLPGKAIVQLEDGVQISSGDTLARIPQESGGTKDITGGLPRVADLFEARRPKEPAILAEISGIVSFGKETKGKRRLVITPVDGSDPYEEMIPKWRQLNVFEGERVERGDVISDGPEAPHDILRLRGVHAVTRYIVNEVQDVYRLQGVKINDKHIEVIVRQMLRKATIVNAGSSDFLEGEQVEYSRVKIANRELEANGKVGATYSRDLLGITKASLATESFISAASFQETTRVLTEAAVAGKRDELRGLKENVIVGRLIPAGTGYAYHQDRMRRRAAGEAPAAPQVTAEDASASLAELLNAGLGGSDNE
T1 sequence (P0A7Z4 whole entry): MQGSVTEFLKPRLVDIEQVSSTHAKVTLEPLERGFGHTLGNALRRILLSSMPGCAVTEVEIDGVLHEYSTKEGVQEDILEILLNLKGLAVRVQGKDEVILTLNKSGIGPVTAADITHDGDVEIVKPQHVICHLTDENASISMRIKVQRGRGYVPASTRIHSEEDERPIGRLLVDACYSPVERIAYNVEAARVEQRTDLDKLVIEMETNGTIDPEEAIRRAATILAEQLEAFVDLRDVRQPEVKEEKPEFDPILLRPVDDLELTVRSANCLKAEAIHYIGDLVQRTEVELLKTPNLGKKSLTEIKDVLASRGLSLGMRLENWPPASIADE
T1 sequence (P0A800 whole entry): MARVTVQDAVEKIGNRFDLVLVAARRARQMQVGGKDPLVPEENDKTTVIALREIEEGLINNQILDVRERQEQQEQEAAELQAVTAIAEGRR
Protocol: One common assay involves evaluation of the compounds as RNA polymerase inhibitors. In this assay, buffer (250 mM KCl, 5% glycerol, 10 mM MgCl2, 0.1 mg/ml BSA) is combined with 6 mM β-M.E., PT5 DNA template, and 1.3 μg/rxn Sigma^70 saturated E. coli RNA Polymerase (Epicenter). The compound is then added in a manner not to exceed 5% DMSO. Nucleotide triphosphates are then added at the following concentration: 250 μM ATP, CTP and UTP with 100 μM cold CTP and 50 μM α-^32P CTP. The mixture is incubated for 10 min at about 37° C. A [2×] loading buffer is added and the mixture is then run on a 6% urea denaturing PAGE until bromophenol blue reaches the edge of plate. The gel is soaked (about 20 minutes in 10% MeOH and 10% acetic acid, to remove urea), then dried (about 55 minutes at about 85° C. (BioRad Gel Drier)) and exposed to a Phospho Imaging Plate for 1 hour. The plate is then read on a Fujix Bas1000 Imaging System and quantified using MacBas v2.0 software. An IC50 (in μM) can be calculated as the concentration of a drug which reduces the enzyme activity to 50% of the control.
In this assay, buffer (250 mM KCl, 5% Glycerol, 10 mM MgCl2, 0.1 mg/ml bovine serum albumin (BSA)) is combined with 6 mM β-mercaptoethanol, PT5 DNA template, and 1.3 μg/rxn Sigma^70 saturated E. coli RNA Polymerase (obtained from Epicenter). The compound is then added in a manner not to exceed 5% DMSO. Nucleotide triphosphates are then added at the following concentration: 250 μM ATP, CTP and UTP with 100 μM cold CTP and 50 μM α-32P CTP. The mixture is incubated for 10 min at about 37° C. A [2×] loading buffer is added and the mixture is then run on a 6% urea denaturing PAGE until bromophenol blue reaches the edge of plate. The gel is soaked (about 20 minutes in 10% MeOH and 10% acetic acid, to remove urea), then dried (about 55 minutes at about 85° C. (BioRad Gel Drier)) and exposed to a Phospho Imaging Plate for 1 hour. The plate is then read on a Fujix Bas1000 Imaging System and quantified using MacBas v2.0 software. An IC50 (in μM) can be calculated as the concentration of a compound of the invention that reduces the enzyme activity to 50% of the control. For the sake of clarity, the above-described assay is used to determine the IC50 values referenced in the claims. However, the skilled artisan will recognize that other methods can be used to determine an IC50 value.

E.c(tolC) = experiment: Minimum Inhibitory Concentration assay, E.c(tolC); assay type: cell-based; settings: 16 h, read-out: MIC (μM) E.c(tolC)
Protocol: as §1
as §1, with “MIC” for “Minimum Inhibitory Concentration (MIC)”

[2] = Table 1, compounds of Formula 1
[3] = Table 2, compounds of Formula 13

SMILES	MIC (B. su; Table 1) [µM]	MIC (S. au; Table 1) [µM]	pIC50 [1, 2]	MIC (E.c(tolC)) [µM]	MIC (B. su; Table 2) [µM]	MIC (S. au; Table 2) [µM]	pIC50 [1, 3]
COc1cccc(-c2[nH]ncc2-c2ccccc2)c1 [Example 2]	< 500	< 500	< 3.30	< 500	–	–	–
Clc1ccc(-c2[nH]ncc2-c2ccccc2)cc1 [Example 3]	> 500	> 500	< 3.30	> 500	–	–	–
Clc1ccc(-c2[nH]ncc2-c2ccccc2)cc1Cl [Example 4]	< 500	< 500	< 3.30	< 500	–	–	–
Cc1ccc(-c2[nH]ncc2-c2ccccc2)cc1 [Example 5]	< 500	< 500	< 3.30	< 500	–	–	–
COc1ccc(-c2[nH]ncc2-c2ccccc2)cc1 [Example 6]	< 500	< 500	< 3.30	< 500	–	–	–
Clc1cccc(-c2cn[nH]c2-c2ccc(Cl)c(Cl)c2)c1 [Example 7]	< 500	< 500	< 3.30	< 500	–	–	–
Clc1cccc(-c2[nH]ncc2-c2ccc(Cl)c(Cl)c2)c1 [Example 8]	< 500	< 500	> 3.30	< 500	–	–	–
FC(F)(F)c1cc(-c2cn[nH]c2-c2cccc(Cl)c2)ccc1Cl [Example 9]	< 500	< 500	> 3.30	< 500	–	–	–
FC(F)(F)c1cc(-c2cn[nH]c2-c2ccccc2)ccc1Cl [Example 10]	< 500	< 500	> 3.30	< 500	–	–	–
Fc1ccc(-c2cn[nH]c2-c2cccc(Cl)c2)cc1C(F)(F)F [Example 11]	< 500	< 500	< 3.30	< 500	–	–	–
FC(F)(F)c1cc(-c2cn[nH]c2-c2cccc(Cl)c2)ccc1N1CCCC1 [Example 12]	< 500	< 500	< 3.30	< 500	–	–	–
O=c1[nH][nH]c(-c2cccc(C(F)(F)F)c2)c1-c1ccccc1 [Example 14, 4-phenyl-5-(3-trifluoromethylphenyl)-1,2-dihydropyrazol-3-one]	–	–	–	< 500	< 500	< 500	> 3.30
O=c1[nH][nH]c(-c2ccc(Cl)cc2)c1-c1ccccc1 [Example 15, 5-(4-chlorophenyl)-4-phenyl-1,2-dihydropyrazol-3-one]	–	–	–	< 500	< 500	< 500	< 3.30
O=c1[nH][nH]c(-c2ccccc2)c1-c1cccc(C(F)(F)F)c1 [Example 16, 5-phenyl-4-(3-trifluoromethylphenyl)-1,2-dihydropyrazol-3-one]	–	–	–	< 500	< 500	< 500	< 3.30
O=c1[nH][nH]c(-c2ccc(Cl)cc2)c1-c1cccc(C(F)(F)F)c1 [Example 17, 5-(4-chlorophenyl)-4-(3-trifluoromethylphenyl)-1,2-dihydropyrazol-3-one]	–	–	–	< 500	< 500	< 500	> 3.30
Fc1ccc(-c2n[nH]cc2-c2ccc(F)c(C(F)(F)F)c2)cc1 [Example 18]	< 500	< 500	> 3.30	< 500	–	–	–
CCNC1CCN(c2ccc(-c3c[nH]nc3-c3ccc(F)cc3)cc2C(F)(F)F)C1 (centres unmarked) [Example 19]	< 500	< 500	> 3.30	< 500	–	–	–
Fc1ccc(-c2n[nH]cc2-c2ccc(NCCN3CCNCC3)c(C(F)(F)F)c2)cc1 [Example 20]	< 500	< 500	> 3.30	< 500	–	–	–
Fc1ccc(-c2n[nH]cc2-c2ccc(NCCNCc3ccccc3)c(C(F)(F)F)c2)cc1 [Example 21]	< 500	< 500	> 3.30	< 500	–	–	–
NS(=O)(=O)c1ccc(CCNc2ccc(-c3c[nH]nc3-c3ccc(F)cc3)cc2C(F)(F)F)cc1 [Example 22]	< 500	< 500	> 3.30	< 500	–	–	–
